Drawing on the supplement of paper PMC10307832, this text covers relative viability for four cell lines.

Common to all, as to assay: relative viability (nuclei count vs DMSO), 5 days (fraction); higher = more cells survive
Compound in test [1]: CN(C)CC1=CC(=CC=C1)N=C(C2=CC=CC=C2)C3=C(NC4=C3C=CC(=C4)C(=O)N(C)C)O + CCNC(=O)c1noc(-c2cc(C(C)C)c(O)cc2O)c1-c1ccc(CN2CCOCC2)cc1 [Luminespib] (partner 0.01 µM)
In a few lines: (§1)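 Lung cancer cell lines in 1536-well plates got either a single drug or a fixed anchor-drug dose together with five library-drug doses (not always all listed) in √10 steps, by pin tool, on the day after seeding. Nuclei were counted after 5 days, and relative viability is the treated-to-vehicle ratio of nuclei counts. Values are medians of duplicate plates.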

Compound in test [2]: CN(C)CC1=CC(=CC=C1)N=C(C2=CC=CC=C2)C3=C(NC4=C3C=CC(=C4)C(=O)N(C)C)O + Nc1ncn([C@H]2C[C@H](O)[C@@H](CO)O2)c(=O)n1 [Decitabine] (partner 2 µM)
The gist of the method:
as §1

Compound in test [3]: CN(C)CC1=CC(=CC=C1)N=C(C2=CC=CC=C2)C3=C(NC4=C3C=CC(=C4)C(=O)N(C)C)O + Cc1nc(Nc2ncc(C(=O)Nc3c(C)cccc3Cl)s2)cc(N2CCN(CCO)CC2)n1 [Dasatinib] (partner 0.075 µM)
In a few lines: as §1

Compound in test [4]: CN(C)CC1=CC(=CC=C1)N=C(C2=CC=CC=C2)C3=C(NC4=C3C=CC(=C4)C(=O)N(C)C)O + COc1cc2c(Oc3ccc(NC(=O)C4(C(=O)Nc5ccc(F)cc5)CC4)cc3F)ccnc2cc1OCCCN1CCOCC1 [Foretinib] (partner 0.25 µM)
The gist of the method: as §1

With SK-LU-1, the relative viability in test [1] (first compound 0.08 µM) was found to be 0.226; in test [1] (first compound 0.253 µM) it was 0.191; in test [1] (first compound 0.8 µM) it was 0.21; in test [1] (first compound 2.53 µM), 0.188; in test [1] (first compound 8 µM) it was 0.225; in test [2] (first compound 0.08 µM), 0.624. Besides, the relative viability in test [2] (first compound 0.253 µM) was found to be 0.653; in test [2] (first compound 0.8 µM), 0.646; in test [2] (first compound 2.53 µM), 0.578; in test [2] (first compound 8 µM), 0.677; in test [3] (first compound 0.08 µM), 0.185; in test [3] (first compound 0.253 µM), 0.199. In addition, the relative viability in test [3] (first compound 0.8 µM) was determined as 0.188; in test [3] (first compound 2.53 µM), 0.196; in test [3] (first compound 8 µM) it was 0.163; in test [4] (first compound 0.08 µM), 0.891; in test [4] (first compound 0.253 µM), 0.881; in test [4] (first compound 0.8 µM) it was 0.857. The figures for the relative viability in test [4] (first compound 2.53 µM) and in test [4] (first compound 8 µM) were 0.651 and 0.581, respectively.

As for SK-MES-1, the relative viability was 0.544 in test [1] (first compound 0.08 µM); 0.749 in test [1] (first compound 0.253 µM); 0.678 in test [1] (first compound 0.8 µM); 0.834 in test [1] (first compound 2.53 µM); 0.521 in test [1] (first compound 8 µM); 0.392 in test [2] (first compound 0.08 µM). The relative viability in test [2] (first compound 0.253 µM) came out at 0.351; in test [2] (first compound 0.8 µM) it was 0.4; in test [2] (first compound 2.53 µM), 0.374; in test [2] (first compound 8 µM) it was 0.39; in test [3] (first compound 0.08 µM) it was 0.438; in test [3] (first compound 0.253 µM), 0.349. Also, the relative viability turned out to be 0.25 in test [3] (first compound 0.8 µM); 0.388 in test [3] (first compound 2.53 µM); 0.311 in test [3] (first compound 8 µM); 0.84 in test [4] (first compound 0.08 µM); 0.975 in test [4] (first compound 0.253 µM); 0.844 in test [4] (first compound 0.8 µM). The relative viability was 0.87 in test [4] (first compound 2.53 µM) and 0.901 in test [4] (first compound 8 µM).

As to SW 1573, the relative viability was determined as 0.162 in test [1] (first compound 0.08 µM); 0.269 in test [1] (first compound 0.253 µM); 0.207 in test [1] (first compound 0.8 µM); 0.296 in test [1] (first compound 2.53 µM); 0.183 in test [1] (first compound 8 µM); 0.496 in test [2] (first compound 0.08 µM). The relative viability came out at 0.46 in test [2] (first compound 0.253 µM); 0.659 in test [2] (first compound 0.8 µM); 0.562 in test [2] (first compound 2.53 µM); 0.573 in test [2] (first compound 8 µM); 0.538 in test [3] (first compound 0.08 µM); 0.794 in test [3] (first compound 0.253 µM). Besides, the relative viability in test [3] (first compound 0.8 µM) worked out at 0.589; in test [3] (first compound 2.53 µM), 0.436; in test [3] (first compound 8 µM) it was 0.383; in test [4] (first compound 0.08 µM), 0.919; in test [4] (first compound 0.253 µM), 0.808; in test [4] (first compound 0.8 µM) it was 0.759. Moreover, the relative viability in test [4] (first compound 2.53 µM) was 0.867; in test [4] (first compound 8 µM), 0.973.

UMC-11: the relative viability in test [1] (first compound 0.08 µM) worked out at 0.982; in test [1] (first compound 0.253 µM) it was 0.941; in test [1] (first compound 0.8 µM), 1.08; in test [1] (first compound 2.53 µM), 0.974; in test [1] (first compound 8 µM) it was 0.821; in test [2] (first compound 0.08 µM), 0.724. Moreover, the relative viability is 0.633 in test [2] (first compound 0.253 µM); 0.693 in test [2] (first compound 0.8 µM); 0.546 in test [2] (first compound 2.53 µM); 0.611 in test [2] (first compound 8 µM); 0.507 in test [3] (first compound 0.08 µM); 0.414 in test [3] (first compound 0.253 µM). In addition, the relative viability in test [3] (first compound 0.8 µM) stood at 0.45; in test [3] (first compound 2.53 µM), 0.445; in test [3] (first compound 8 µM), 0.407; in test [4] (first compound 0.08 µM), 1.01; in test [4] (first compound 0.253 µM) it was 1.07; in test [4] (first compound 0.8 µM), 1.06. Further, the relative viability in test [4] (first compound 2.53 µM) is 1.05; in test [4] (first compound 8 µM), 0.997.
